How the values were obtained:
Test in all cases: KinomeScan kinase profiling
Assay type in all cases: binding
[1] = molecular target: T1, ABL1 (H396P) (Homo sapiens, UniProt P00519, H396P)
T1 construct: host or cells: E. coli host derived from BL21 (T7 phage lysate)
How it was run: (§1)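 Kinases were expressed as T7 phage fusions in a BL21-derived E. coli host and the cleared lysates were used. Ligand beads were blocked with biotin and buffer (1% BSA, 0.05% Tween 20, 1 mM DTT). Compounds came from 40× DMSO stocks, and phage in the eluates was titred by qPCR.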

[2] = molecular target: T2, ALK (Homo sapiens, UniProt Q9UM73)
T2 construct: host or cells: E. coli host derived from BL21 (T7 phage lysate)
T2 sequence (Q9UM73 19-1620): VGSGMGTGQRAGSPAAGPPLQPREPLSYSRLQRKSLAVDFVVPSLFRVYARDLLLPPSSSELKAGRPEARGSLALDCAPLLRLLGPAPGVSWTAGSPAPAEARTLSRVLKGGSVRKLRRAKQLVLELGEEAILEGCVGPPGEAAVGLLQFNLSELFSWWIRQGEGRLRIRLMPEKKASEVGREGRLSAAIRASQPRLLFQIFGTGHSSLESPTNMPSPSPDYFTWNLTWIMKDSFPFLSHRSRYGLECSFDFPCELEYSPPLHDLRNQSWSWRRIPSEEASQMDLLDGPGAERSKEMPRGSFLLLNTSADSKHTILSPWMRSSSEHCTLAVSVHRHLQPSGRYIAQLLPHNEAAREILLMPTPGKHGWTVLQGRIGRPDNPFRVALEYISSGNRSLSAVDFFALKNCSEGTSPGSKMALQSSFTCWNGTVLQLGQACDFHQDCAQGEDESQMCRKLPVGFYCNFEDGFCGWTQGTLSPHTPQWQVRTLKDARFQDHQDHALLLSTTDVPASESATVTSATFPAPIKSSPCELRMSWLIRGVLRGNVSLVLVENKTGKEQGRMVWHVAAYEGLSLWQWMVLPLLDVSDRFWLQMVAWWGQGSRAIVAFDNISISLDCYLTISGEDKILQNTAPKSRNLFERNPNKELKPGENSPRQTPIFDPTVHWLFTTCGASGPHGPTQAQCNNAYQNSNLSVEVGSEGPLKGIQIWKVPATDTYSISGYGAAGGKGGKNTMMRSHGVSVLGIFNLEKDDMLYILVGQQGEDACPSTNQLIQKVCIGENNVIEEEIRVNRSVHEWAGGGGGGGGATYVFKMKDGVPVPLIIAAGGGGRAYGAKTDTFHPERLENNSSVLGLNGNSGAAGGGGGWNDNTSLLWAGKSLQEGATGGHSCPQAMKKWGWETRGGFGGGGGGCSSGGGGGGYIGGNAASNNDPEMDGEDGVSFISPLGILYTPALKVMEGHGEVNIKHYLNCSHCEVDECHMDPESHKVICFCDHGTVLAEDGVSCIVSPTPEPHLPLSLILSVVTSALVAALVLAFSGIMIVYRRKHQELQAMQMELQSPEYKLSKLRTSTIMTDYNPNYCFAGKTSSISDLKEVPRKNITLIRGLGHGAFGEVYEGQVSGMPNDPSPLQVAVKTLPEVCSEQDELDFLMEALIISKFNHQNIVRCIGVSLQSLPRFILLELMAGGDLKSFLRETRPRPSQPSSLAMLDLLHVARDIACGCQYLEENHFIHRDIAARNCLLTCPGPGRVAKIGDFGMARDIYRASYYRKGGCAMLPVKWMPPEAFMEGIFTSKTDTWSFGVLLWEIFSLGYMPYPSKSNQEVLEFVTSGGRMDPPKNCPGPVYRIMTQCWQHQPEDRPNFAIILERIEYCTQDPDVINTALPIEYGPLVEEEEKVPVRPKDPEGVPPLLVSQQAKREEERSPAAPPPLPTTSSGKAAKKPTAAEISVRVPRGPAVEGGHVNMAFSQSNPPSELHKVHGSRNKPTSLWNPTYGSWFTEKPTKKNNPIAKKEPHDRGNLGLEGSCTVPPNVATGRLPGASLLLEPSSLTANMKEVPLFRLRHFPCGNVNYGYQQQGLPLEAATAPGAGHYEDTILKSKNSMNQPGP
How it was run: as §1

[3] = molecular target: T3, ARK5 (Homo sapiens, UniProt O60285)
T3 construct: purchased Ambit Biosciences Corp (KinomeScan); host or cells: E. coli host derived from the BL21 strain, T7 phage
How it was run: as §1

[4] = molecular target: T4, BMPR1B (Homo sapiens, UniProt O00238)
T4 construct: purchased Ambit Biosciences Corp (KinomeScan); host or cells: E. coli host derived from the BL21 strain, T7 phage
How it was run: as §1

[5] = molecular target: T5, CDC2L2 (Homo sapiens, UniProt Q9UQ88)
T5 construct: host or cells: T7 phage in E. coli (BL21-derived)
How it was run: as §1

[6] = molecular target: T6, CSNK1A1L (Homo sapiens, UniProt Q8N752)
T6 construct: host or cells: T7 phage in E. coli (BL21-derived)
T6 sequence (Q8N752 whole entry): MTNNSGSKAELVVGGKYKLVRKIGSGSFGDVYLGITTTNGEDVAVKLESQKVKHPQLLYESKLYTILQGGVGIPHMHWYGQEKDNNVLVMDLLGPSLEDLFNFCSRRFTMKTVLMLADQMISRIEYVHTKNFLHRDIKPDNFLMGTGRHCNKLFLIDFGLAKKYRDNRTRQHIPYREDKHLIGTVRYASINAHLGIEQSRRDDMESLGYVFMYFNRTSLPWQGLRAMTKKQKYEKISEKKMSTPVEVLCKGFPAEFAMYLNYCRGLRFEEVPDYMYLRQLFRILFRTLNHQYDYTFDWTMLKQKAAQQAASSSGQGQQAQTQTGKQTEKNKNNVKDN
How it was run: as §1

[7] = molecular target: T7, CSNK2A1 (Homo sapiens, UniProt P68400)
T7 construct: purchased Ambit Biosciences Corp (KinomeScan); host or cells: T7 phage in E. coli host derived from BL21
How it was run: as §1

[8] = molecular target: T8, DAPK1 (Homo sapiens, UniProt P53355)
T8 construct: purchased Ambit Biosciences Corp (KinomeScan); host or cells: T7 phage in E. coli host derived from BL21
How it was run: as §1

[9] = molecular target: T9, DDR1 (Homo sapiens, UniProt Q08345)
T9 construct: purchased Ambit Biosciences Corp (KinomeScan); host or cells: T7 phage in E. coli host derived from BL21
How it was run: as §1

[10] = molecular target: T10, EGFR (E746-A750del) (Homo sapiens, UniProt P00533, DEL746-750)
T10 construct: purchased Ambit Biosciences Corp (KinomeScan); host or cells: T7 phage in E. coli host derived from BL21
How it was run: as §1

[11] = molecular target: T11, EPHA4 (Homo sapiens, UniProt P54764)
T11 construct: host or cells: E. coli host derived from BL21, T7 phage lysate
T11 sequence (P54764 20-986): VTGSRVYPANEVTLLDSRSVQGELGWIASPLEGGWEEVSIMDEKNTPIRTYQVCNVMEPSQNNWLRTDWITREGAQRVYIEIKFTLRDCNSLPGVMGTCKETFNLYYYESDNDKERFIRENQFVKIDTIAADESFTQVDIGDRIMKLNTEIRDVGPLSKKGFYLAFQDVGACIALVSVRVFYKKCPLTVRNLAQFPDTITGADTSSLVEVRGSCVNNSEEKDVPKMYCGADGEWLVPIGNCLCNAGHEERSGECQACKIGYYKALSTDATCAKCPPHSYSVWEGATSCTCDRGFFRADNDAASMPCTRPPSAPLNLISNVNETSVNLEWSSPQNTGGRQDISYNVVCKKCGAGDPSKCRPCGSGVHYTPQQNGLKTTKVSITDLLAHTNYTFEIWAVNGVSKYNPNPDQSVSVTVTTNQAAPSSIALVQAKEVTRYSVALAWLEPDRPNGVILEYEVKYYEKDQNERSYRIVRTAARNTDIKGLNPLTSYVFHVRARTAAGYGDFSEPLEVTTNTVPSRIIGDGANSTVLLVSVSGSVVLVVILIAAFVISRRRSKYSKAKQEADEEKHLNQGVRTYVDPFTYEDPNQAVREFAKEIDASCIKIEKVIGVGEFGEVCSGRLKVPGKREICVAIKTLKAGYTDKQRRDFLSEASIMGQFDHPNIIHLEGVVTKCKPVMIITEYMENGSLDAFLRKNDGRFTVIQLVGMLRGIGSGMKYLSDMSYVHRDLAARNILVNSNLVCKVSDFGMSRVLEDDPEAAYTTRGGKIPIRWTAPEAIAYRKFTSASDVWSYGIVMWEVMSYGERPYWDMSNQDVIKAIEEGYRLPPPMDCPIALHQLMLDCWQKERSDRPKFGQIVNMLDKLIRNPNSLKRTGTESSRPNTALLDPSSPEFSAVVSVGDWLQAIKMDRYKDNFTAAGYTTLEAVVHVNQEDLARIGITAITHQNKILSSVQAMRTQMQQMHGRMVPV
How it was run: as §1

[12] = molecular target: T12, EPHA6 (Homo sapiens, UniProt Q9UF33)
T12 construct: host or cells: E. coli host derived from BL21, T7 phage lysate
How it was run: as §1

[13] = molecular target: T13, FAK (Homo sapiens, UniProt Q05397)
T13 construct: host or cells: E. coli host derived from BL21, T7 phage lysate
How it was run: as §1

[14] = molecular target: T14, FER (Homo sapiens, UniProt P16591)
T14 construct: host or cells: E. coli host derived from BL21, infected with T7 phage
T14 sequence (P16591 whole entry): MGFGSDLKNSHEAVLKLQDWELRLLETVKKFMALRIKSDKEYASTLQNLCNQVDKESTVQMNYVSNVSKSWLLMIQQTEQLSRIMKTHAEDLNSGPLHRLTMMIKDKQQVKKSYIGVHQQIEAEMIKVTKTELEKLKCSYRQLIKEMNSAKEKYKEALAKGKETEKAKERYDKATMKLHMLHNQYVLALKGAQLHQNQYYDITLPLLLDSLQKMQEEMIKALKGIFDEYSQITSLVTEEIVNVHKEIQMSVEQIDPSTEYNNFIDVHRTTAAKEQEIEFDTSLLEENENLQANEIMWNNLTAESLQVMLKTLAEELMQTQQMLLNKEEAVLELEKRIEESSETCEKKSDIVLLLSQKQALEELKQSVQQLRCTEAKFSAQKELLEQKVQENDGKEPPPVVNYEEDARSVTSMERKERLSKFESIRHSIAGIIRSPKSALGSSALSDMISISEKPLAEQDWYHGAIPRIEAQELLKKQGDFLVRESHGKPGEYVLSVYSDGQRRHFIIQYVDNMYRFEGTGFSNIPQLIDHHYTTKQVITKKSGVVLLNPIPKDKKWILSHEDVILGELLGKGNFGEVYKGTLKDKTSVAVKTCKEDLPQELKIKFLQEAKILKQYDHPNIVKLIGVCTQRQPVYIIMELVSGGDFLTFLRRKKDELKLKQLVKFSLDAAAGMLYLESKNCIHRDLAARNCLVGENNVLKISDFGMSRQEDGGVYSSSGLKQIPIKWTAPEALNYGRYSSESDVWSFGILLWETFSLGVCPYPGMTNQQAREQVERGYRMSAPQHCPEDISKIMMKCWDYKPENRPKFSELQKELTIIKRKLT
How it was run: as §1

[15] = molecular target: T15, FGR (Homo sapiens, UniProt P09769)
T15 construct: host or cells: E. coli host derived from BL21, infected with T7 phage
How it was run: as §1

[16] = molecular target: T16, FYN (Homo sapiens, UniProt P06241)
T16 construct: host or cells: E. coli host derived from BL21, infected with T7 phage
How it was run: as §1

[17] = molecular target: T17, IGF1R (Homo sapiens, UniProt P08069)
T17 construct: host or cells: T7 phage in E. coli host derived from BL21
T17 sequence (P08069 31-1367): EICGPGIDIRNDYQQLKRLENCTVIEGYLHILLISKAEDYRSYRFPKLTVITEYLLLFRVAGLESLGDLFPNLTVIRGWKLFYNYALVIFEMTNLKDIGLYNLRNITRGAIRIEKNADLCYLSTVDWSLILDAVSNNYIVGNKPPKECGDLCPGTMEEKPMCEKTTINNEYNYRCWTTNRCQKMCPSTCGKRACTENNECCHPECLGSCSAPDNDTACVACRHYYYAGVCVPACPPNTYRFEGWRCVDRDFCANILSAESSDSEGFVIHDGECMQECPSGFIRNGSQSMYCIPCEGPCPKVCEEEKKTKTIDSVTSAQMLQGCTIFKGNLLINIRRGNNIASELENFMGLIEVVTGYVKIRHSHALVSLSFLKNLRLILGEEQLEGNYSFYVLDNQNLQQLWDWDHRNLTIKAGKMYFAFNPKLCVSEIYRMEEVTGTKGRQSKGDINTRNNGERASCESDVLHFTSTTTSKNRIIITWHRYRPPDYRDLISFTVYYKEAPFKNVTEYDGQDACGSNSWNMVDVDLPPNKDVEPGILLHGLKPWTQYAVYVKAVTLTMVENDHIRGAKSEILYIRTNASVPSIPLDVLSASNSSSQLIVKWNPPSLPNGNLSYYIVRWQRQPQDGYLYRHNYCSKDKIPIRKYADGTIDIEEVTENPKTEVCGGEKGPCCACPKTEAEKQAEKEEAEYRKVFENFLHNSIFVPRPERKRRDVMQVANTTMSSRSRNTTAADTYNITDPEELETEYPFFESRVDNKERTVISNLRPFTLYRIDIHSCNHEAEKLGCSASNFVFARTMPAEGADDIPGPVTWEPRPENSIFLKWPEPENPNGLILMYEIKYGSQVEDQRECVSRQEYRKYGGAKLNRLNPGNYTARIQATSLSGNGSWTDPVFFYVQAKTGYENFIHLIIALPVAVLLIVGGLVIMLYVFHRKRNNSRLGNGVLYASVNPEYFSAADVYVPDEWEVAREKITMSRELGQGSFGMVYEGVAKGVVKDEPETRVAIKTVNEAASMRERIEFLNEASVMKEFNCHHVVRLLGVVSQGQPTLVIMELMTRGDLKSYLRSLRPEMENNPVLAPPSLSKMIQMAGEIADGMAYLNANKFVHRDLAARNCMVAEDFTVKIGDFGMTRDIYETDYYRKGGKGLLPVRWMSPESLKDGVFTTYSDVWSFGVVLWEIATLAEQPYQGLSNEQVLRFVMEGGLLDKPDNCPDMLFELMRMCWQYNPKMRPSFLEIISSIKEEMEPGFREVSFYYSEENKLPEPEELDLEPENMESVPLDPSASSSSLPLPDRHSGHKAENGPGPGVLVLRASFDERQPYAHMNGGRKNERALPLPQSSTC
How it was run: as §1

[18] = molecular target: T18, MRCKB (Homo sapiens, UniProt Q9Y5S2)
T18 construct: host or cells: T7 phage in E. coli host derived from BL21
How it was run: as §1

[19] = molecular target: T19, NEK5 (Homo sapiens, UniProt Q6P3R8)
T19 construct: host or cells: T7 phage in E. coli host derived from BL21
How it was run: as §1

[20] = molecular target: T20, PAK3 (Homo sapiens, UniProt O75914)
T20 construct: host or cells: E. coli host derived from the BL21 strain, infected with T7 phage
How it was run: as §1

[21] = molecular target: T21, RIPK4 (Homo sapiens, UniProt P57078)
T21 construct: host or cells: E. coli host derived from BL21, T7 phage lysate
How it was run: as §1

[22] = molecular target: T22, SRPK2 (Homo sapiens, UniProt P78362)
T22 construct: host or cells: E. coli host derived from the BL21 strain, T7 phage lysate
How it was run: as §1

[23] = molecular target: T23, TRKA (Homo sapiens, UniProt P04629)
T23 construct: purchased Ambit Biosciences Corp (KinomeScan); host or cells: E. coli host derived from the BL21 strain (T7 phage lysate)
How it was run: as §1

Question: With `C#Cc1cccc(Nc2ncnc3cc(OC)c(OCCCN4CCOCC4)cc23)c1` [NRC-2694, N-(3-ethylnylphenyl)-7-methoxy-6-[3-(4-morpholinyl)propoxy]-4-quinazolinamine] as the compound, how does the “% Ctrl @ 10000 nM” value [1] read?
Answer: 34 % Ctrl

Question: And the “% Ctrl @ 10000 nM” value [2]?
Answer: 10 % Ctrl

Question: And the “% Ctrl @ 10000 nM” value [3]?
Answer: 29 % Ctrl

Question: What about the “% Ctrl @ 10000 nM” value [4] of the same compound?
Answer: 78 % Ctrl

Question: What about the “% Ctrl @ 10000 nM” value [5] of the same compound?
Answer: 37 % Ctrl

Question: What about the “% Ctrl @ 10000 nM” value [6] of the same compound?
Answer: 44 % Ctrl

Question: And the “% Ctrl @ 10000 nM” value [7]?
Answer: 56 % Ctrl

Question: What about the “% Ctrl @ 10000 nM” value [8] of the same compound?
Answer: 26 % Ctrl

Question: And the “% Ctrl @ 10000 nM” value [9]?
Answer: 39 % Ctrl

Question: And the “% Ctrl @ 10000 nM” value [10]?
Answer: 0 % Ctrl

Question: What about the “% Ctrl @ 10000 nM” value [11] of the same compound?
Answer: 64 % Ctrl

Question: And the “% Ctrl @ 10000 nM” value [12]?
Answer: 25 % Ctrl

Question: And the “% Ctrl @ 10000 nM” value [13]?
Answer: 85 % Ctrl

Question: What about the “% Ctrl @ 10000 nM” value [14] of the same compound?
Answer: 94 % Ctrl

Question: What about the “% Ctrl @ 10000 nM” value [15] of the same compound?
Answer: 19 % Ctrl

Question: What about the “% Ctrl @ 10000 nM” value [16] of the same compound?
Answer: 41 % Ctrl

Question: And the “% Ctrl @ 10000 nM” value [17]?
Answer: 74 % Ctrl

Question: What about the “% Ctrl @ 10000 nM” value [18] of the same compound?
Answer: 71 % Ctrl

Question: And the “% Ctrl @ 10000 nM” value [19]?
Answer: 94 % Ctrl

Question: And the “% Ctrl @ 10000 nM” value [20]?
Answer: 55 % Ctrl

Question: What about the “% Ctrl @ 10000 nM” value [21] of the same compound?
Answer: 96 % Ctrl

Question: What about the “% Ctrl @ 10000 nM” value [22] of the same compound?
Answer: 73 % Ctrl

Question: What about the “% Ctrl @ 10000 nM” value [23] of the same compound?
Answer: 100 % Ctrl

— patent US9050341B2, “Methods of treating drug resistant and other tumors by administering 6,7-dialkoxy quinazoline derivatives” (NATCO PHARMA LIMITED, priority 2009, dated 2015)
